Source: the NIST ThermoML archive (doi:10.1016/j.jct.2006.10.006)
± gives the expanded uncertainty stated by the source.

Tests used:
[1] = Crystal 1; DTA
[2] = Molar enthalpy of transition or fusion; settings: Crystal; DSC
[3] = molar enthalpy of vaporization or sublimation; settings: 298.15 K; Crystal; Static calorimetry

Triple point temperature [1]: 345.9 ± 0.5 K | Molar enthalpy of transition or fusion [2]: 5.23 ± 0.234 kcal/mol | molar enthalpy [3]: 34.2 ± 1.43 kcal/mol
Compound: CCOC(=S)NC(=O)c1cccs1 [carbamothioic acid, N-(2-thienylcarbonyl)-, O-ethyl ester]
